In assay [1] the test system is subjects with recent onset atrial fibrillation or flutter. The assay can be described thus: Phase III study of intravenous tedisamil sesquifumarate in subjects with recent onset atrial fibrillation or flutter. Type of assay: in vivo, human. Conditions: second study (Phase III). The protocol: This second clinical study was a Multi-Center, Double-Blind, Randomized, Placebo-Controlled, Parallel Design Study to evaluate the Efficacy and Safety of Intravenous Tedisamil Sesquifumarate in the Rapid Conversion to Normal Sinus Rhythm in Subjects with Recent Onset Atrial Fibrillation or Flutter.
The active ingredient used was tedisamil sesqifumarate. […] Study duration: Screening: up to 48 hours; treatment (in-patient): single 30-minute infusion; safety follow up: 24 hours (in-patient) with continuous telemetry and 28 day safety follow up. […]

A further assay deals with healthy male subjects. As to the kind of experiment: Two step infusion study in healthy male subjects: pharmacodynamics (12-lead ECG: QT, QTc, heart rate). In kind it is in vivo, human. Conditions: for Pharmacodynamic action on QT, QTc interval and heart rate: over two hours post dosing. The protocol:
A double-blind, placebo-controlled, randomized, single iv dose, two periods cross-over study to assess the safety, tolerability, pharmacodynamics and pharmacokinetics during and following a two step infusion of Tedisamil in healthy male subjects was performed with the following drug and dosages: Tedisamil dihydrochloride/0.4 mg/kg body weight infused over 30 minutes.
• 1. To assess safety and tolerability of tedisamil in healthy male subjects during and following a two step infusion scheme (0.4 mg/kg body weight infused over 30 minutes, with half of the dose infused over 10 minutes and half of the dose infused over the remaining 20 minutes). • 2. […] Methodology:
This was a single center, double-blind, placebo-controlled, randomized, single iv dose, two period cross-over study. Subjects were randomly allocated to either treatment sequence tedisamil-placebo or placebo-tedisamil. Number of patients (planned, screened, randomized and analyzed): Planned: 18, Screened: 27, Randomized: 18, Analyzed: 18 in PK/PD and safety analyses.
Subjects were included in the study only if they were healthy males, their age was in the range of 18-40 years (both inclusive), their body mass index (BMI) was between 18 kg/m^2 and 28 kg/m^2. Test product, dose and mode of administration: Tedisamil dihydrochloride; Strength: 2 mg/ml; Dose: 0.4 mg/kg body weight infused over 30 minutes, with half of the dose infused over 10 minutes and half of the dose infused over the remaining 20 minutes. Route: intravenous.
12-lead ECG.s were taken at several time points to explore the pharmacodynamic effects of Tedisamil (effects on QT and QTc) during and following infusion. The maximum value and maximum increase were derived for QTc and QT and the minimum value and maximum decrease were derived for heart rate. The AUC(0-24) and the maximum for the placebo-corrected QTc and QT and the AUC(0-24) and the minimum for the placebo-corrected heart rate were also calculated.
Descriptive statistics were performed for the ECG intervals QT, QTc, RR, PR, QRS and for heart rate by treatment (tedisamil, placebo and “tedisamil−placebo”) and time point. Individual and mean (arithmetic mean±1 SD) time profiles for ECG intervals and heart rate were graphically presented for both treatments.
Derived parameters, i.e. maximum value and maximum increase for QTc and QT, and minimum value and maximum decrease for heart rate were submitted to separate analyses of (co)variance (covariance only for maximum and minimum values) including subject, treatment, sequence, and period as class effects (and the individual pre-dose value as covariate). Point estimates and 95% confidence intervals were constructed for the difference “tedisamil−placebo” using the residual variance. Model assumptions were checked by visual inspection of residual plots. Additionally, descriptive statistics were calculated for the derived parameters per treatment and for the difference “tedisamil−placebo”.
Descriptive statistics for the placebo corrected AUC(0-24) of QTc, QT and heart rate and the placebo corrected maximum effect (maximum for QTc and QT and minimum for heart rate) were calculated. In addition, 95% confidence intervals were derived based on normally distributed outcomes.

Where [2] appears, read: 0.4 mg/kg tedisamil dihydrochloride iv, two step infusion over 30 minutes.
[3] abbreviates: difference tedisamil−placebo, analysis of covariance, 0.4 mg/kg iv two step infusion.
The mark [4] stands for this setting: difference tedisamil−placebo, analysis of variance, 0.4 mg/kg iv two step infusion.
Where [5] appears, read: placebo-corrected, 0.4 mg/kg iv two step infusion.

These results are taken from US7087620B2, “Liquid pharmaceutical formulations containing 3,7-diazabicyclo[3,3,1]nonane compounds and methods of treatment relating to anti-arrhythmic events” (Solvay Pharmaceuticals GmbH, priority 2002, dated 2006).

The structures appear in SMILES notation. “Also recorded” adds a separate entry of the source.

For the compound `C1CCC2(C1)C1CN(CC3CC3)CC2CN(CC2CC2)C1` [Tedisamil, N,N′-dicyclopropylmethyl-9,9-tetramethylene-3,7-diazabicyclo[3,3,1]nonane], in assay [1], the “Gender difference in conversion rate” value is given as “male patients show a higher conversion rate compared to women”. Further, in the assay with healthy male subjects (setting [2]), the “Heart Rate Max. Decrease, Arith. Mean (SD)” value is 10.6 (3.8) bpm; the “Heart Rate Minimum, Arith. Mean (SD)” value is 49.2 (7.0) bpm; the “QT Interval Max. Increase, Arith. Mean (SD)” value was 76.0 (22.4) ms; the “QT Interval Maximum, Arith. Mean (SD)” value is 474.2 (39.2) ms. For the same compound, in the assay with healthy male subjects (setting [2]), the “QTc Interval Max. Increase, Arith. Mean (SD)” value is given as 61.1 (30.3) ms and the “QTc Interval Maximum, Arith. Mean (SD)” value was 455.9 (30.0) ms. In the assay with healthy male subjects (setting [3]), the “Heart Rate Minimum, Estimate (Ted-Pla)” value was −4.01 bpm; the “QT Interval Maximum, Estimate (Ted-Pla)” value is 58.4 ms; the “QTc Interval Maximum, Estimate (Ted-Pla)” value is reported as 34.0 ms. For the same compound, in the assay with healthy male subjects (setting [4]), the “Heart Rate Max. Decrease, Estimate (Ted-Pla)” value was 4.22 bpm; the “QT Interval Max. Increase, Estimate (Ted-Pla)” value is 57.9 ms; the “QTc Interval Max. Increase, Estimate (Ted-Pla)” value is 34.1 ms. For the same compound, the “Pharmacodynamic action on QT, QTc interval and heart rate” value with healthy male subjects (two step infusion) is “a marked prolongation of QT and QTc interval and a distinct decrease in heart rate; also recorded: strong effect on QT, QTc and heart in the first two hours post dosing”. For the same compound, the “Pharmacodynamic action on QT, QTc interval and heart rate” value in the assay on healthy male subjects (two step infusion, listed as TEDI) was “a prolongation of QT and QTc intervals and a distinct decrease in heart rate”. For the same compound, in the assay on healthy male subjects (setting [5]), the “Placebo-corrected Heart Rate AUC(0-24), Mean (SD)” value is on record as −13.5 (11.5) bpm; the “Placebo-corrected Heart Rate Minimum, Mean (SD)” value is reported as −15.9 (6.0) bpm; the “Placebo-corrected QT Interval AUC(0-24), Mean (SD)” value is given as 112.9 (382.9) ms; the “Placebo-corrected QT Interval Maximum, Mean (SD)” value is listed as 74.7 (36.7) ms. Besides, in the assay with healthy male subjects (setting [5]), the “Placebo-corrected QTc Interval AUC(0-24), Mean (SD)” value is given as 28.5 (170.5) ms and the “Placebo-corrected QTc Interval Maximum, Mean (SD)” value is listed as 63.9 (26.9) ms. In addition, the “Effect on AUC(0-24) values of QT, QTc and heart rate” value in the assay on healthy male subjects (placebo-corrected, two step infusion) is “A significant effect of Tedisamil could not be found”.
